Values of other authors in US20240398797A1, “COMBINATION THERAPIES FOR METASTATIC CASTRATION-RESISTANT PROSTATE CANCER” (Janssen Pharmaceutica NV, priority 2021, published 2024).

Tests used:
[1] = test system: non-castrate hormone-sensitive and bicalutamide-resistant human prostate cancer xenograft models
T877A AR mutant = biological target: T1, T877A AR mutant (Homo sapiens, UniProt P10275, T878A)
T1 sequence (P10275 1-920 T878A): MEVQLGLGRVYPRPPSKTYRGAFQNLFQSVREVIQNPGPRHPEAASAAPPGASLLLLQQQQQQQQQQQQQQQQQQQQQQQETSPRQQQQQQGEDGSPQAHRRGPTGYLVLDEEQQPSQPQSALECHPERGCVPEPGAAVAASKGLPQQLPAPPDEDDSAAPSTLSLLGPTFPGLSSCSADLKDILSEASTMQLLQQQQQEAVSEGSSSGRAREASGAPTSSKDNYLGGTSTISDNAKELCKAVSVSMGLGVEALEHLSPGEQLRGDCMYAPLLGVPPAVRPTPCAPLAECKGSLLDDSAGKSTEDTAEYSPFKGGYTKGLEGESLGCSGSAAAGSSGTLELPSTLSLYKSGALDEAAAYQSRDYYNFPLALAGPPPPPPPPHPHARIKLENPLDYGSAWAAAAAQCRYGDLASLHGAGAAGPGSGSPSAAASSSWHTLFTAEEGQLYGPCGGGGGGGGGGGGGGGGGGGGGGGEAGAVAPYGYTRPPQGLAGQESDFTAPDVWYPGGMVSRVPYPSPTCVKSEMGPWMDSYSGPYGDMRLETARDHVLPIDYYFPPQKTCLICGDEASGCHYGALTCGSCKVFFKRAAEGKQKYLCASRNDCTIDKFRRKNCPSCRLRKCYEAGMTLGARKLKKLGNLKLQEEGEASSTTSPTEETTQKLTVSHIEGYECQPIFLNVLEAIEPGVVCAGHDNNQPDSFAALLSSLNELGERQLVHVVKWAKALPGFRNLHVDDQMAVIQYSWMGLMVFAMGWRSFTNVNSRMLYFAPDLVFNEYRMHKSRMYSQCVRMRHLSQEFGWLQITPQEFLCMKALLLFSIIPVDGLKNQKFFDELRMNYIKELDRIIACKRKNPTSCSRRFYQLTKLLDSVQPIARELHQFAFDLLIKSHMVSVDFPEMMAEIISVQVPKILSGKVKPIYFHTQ

Row | activity at AR mutant (T877A AR mutant) | Compound | tumor regression [1]
1 |  | CNC(=O)c1ccc(N2C(=S)N(c3cnc(C#N)c(C(F)(F)F)c3)C(=O)C23CCC3)cc1F [Apalutamide, 4-[7-(6-cyano-5-trifluoromethylpyridin-3-yl)-8-oxo-6-thioxo-5,7-diazaspiro [3.4]oct-5-yl]-2-fluoro-N-methylbenzamide] | partial or complete tumor regression
2 | act as AR agonists | CC(C)(O)C(=O)Nc1ccc([N+](=O)[O-])c(C(F)(F)F)c1 [hydroxyflutamide] | 
